The record followed here is patent publication US12655106B2 (Eikonizo Therapeutics, Inc., priority 2021, dated 2026).

One test has as its target T1, Full length Human HDAC6 (Homo sapiens, UniProt Q9UBN7).
T1 construct: Full length Human HDAC6; FLAG (C); host or cells: baculovirus expression system
T1 sequence (Q9UBN7 1-1215): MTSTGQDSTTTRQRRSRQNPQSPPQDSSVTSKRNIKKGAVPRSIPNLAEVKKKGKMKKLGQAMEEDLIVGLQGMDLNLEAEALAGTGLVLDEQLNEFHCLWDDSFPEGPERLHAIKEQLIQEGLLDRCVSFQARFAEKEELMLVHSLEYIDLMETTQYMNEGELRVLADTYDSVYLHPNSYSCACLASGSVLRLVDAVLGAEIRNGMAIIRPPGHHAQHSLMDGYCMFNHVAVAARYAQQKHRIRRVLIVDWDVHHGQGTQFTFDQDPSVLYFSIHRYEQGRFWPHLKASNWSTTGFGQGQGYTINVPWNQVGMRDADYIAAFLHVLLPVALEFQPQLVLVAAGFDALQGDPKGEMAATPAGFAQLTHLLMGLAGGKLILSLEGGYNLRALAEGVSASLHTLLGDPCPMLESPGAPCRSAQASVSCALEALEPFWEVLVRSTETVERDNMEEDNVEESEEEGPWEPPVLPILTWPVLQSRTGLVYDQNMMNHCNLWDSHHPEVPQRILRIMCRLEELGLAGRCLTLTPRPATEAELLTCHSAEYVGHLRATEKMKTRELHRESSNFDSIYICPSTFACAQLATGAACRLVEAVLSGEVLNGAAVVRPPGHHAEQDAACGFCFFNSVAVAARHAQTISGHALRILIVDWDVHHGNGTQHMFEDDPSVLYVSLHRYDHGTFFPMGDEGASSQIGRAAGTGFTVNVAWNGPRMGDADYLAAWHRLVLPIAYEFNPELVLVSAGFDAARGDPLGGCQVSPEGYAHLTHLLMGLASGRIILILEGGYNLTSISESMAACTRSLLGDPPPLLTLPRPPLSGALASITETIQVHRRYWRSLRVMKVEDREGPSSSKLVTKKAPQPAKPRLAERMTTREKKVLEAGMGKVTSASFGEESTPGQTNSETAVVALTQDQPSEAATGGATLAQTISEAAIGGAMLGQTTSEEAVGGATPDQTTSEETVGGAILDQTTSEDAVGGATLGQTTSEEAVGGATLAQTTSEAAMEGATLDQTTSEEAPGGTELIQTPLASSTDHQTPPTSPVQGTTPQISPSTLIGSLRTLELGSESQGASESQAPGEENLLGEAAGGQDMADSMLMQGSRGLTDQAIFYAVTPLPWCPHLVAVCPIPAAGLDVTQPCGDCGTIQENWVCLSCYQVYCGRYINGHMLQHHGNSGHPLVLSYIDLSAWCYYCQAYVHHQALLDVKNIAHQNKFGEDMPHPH
In words: Caliper endpoint assay for HDAC enzymatic activity (HDAC6). Format: biochemical. To be noted: for IC50: in vitro enzymatic, Caliper endpoint assay, 30 min pre-incubation, 1 μM substrate peptide; for Selectivity (6 v 8): ratio of HDAC8 IC50/HDAC6 IC50.

Another test deals with T2, Full length Human HDAC8 (Homo sapiens, UniProt Q9BY41).
T2 construct: Full length Human HDAC8; HIS (N); host or cells: baculovirus expression system
T2 sequence (Q9BY41 1-377): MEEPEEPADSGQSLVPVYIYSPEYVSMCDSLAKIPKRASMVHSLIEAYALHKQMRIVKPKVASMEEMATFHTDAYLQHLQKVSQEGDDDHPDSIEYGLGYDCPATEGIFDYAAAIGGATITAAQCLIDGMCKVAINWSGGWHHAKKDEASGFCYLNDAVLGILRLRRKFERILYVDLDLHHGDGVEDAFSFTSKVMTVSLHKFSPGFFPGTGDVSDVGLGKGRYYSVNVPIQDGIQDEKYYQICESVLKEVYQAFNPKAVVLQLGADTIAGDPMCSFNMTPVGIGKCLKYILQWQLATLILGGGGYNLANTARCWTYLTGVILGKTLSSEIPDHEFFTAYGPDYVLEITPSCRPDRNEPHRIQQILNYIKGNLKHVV
In words: Caliper endpoint assay for HDAC enzymatic activity (HDAC8). Format: biochemical. To be noted: in vitro enzymatic, 30 min pre-incubation, 1 μM substrate peptide.

Usually IC50 stands for the concentration needed to halve the response being measured. A low value points to greater potency in that assay.

As to `CC(=O)N1CC[C@@H](N2CCc3cc(C(=O)NO)cc(F)c3C2)CC12CCC2` (single isomer, unassigned) [Compound 442], at Full length Human HDAC6, the half-inhibitory concentration (IC50) lay within 1 to 100 nM and the “Selectivity (6 v 8)” value is reported as “IV (IV: >100-1000)”. The same compound gave a 50% inhibitory concentration (IC50) on Full length Human HDAC8 of 10000 to 100000 nM.
Regarding `O=C(NO)c1ccc2c(c1)CCN1CCC[C@@H]21` [Compound 149], on Full length Human HDAC6, the IC50 was 100 to 1000 nM and the “Selectivity (6 v 8)” value is listed as “II (II: >1-10)”. At Full length Human HDAC8, this compound registered an IC50 of 1000 to 10000 nM.
In the same order, the values of `O=C(NO)c1cc(F)c2c(c1)CCN([C@H]1CC[C@@]13CCOC3)C2` (single isomer, unassigned) [Compound 315] are 1 to 100 nM, “IV (IV: >100-1000)” and 10000 to 100000 nM.
`CC[C@H]1Cc2c(F)cc(C(=O)NO)cc2CN1CC12CC(NC)(C1)C2` (single isomer, unassigned) [Compound 523]: at Full length Human HDAC6, the IC50 was in the range of 1 to 100 nM and the “Selectivity (6 v 8)” value is “IV (IV: >100-1000)”. The concentration for half-maximal inhibition (IC50) on Full length Human HDAC8 lay within 10000 to 100000 nM.
Turning to `CC1(C)C[C@@H]2Cc3c(F)cc(C(=O)NO)cc3CN2C1` [Compound 127], on Full length Human HDAC6, the IC50 is 1 to 100 nM and the “Selectivity (6 v 8)” value is “IV (IV: >100-1000)”. The compound also displayed an IC50 at Full length Human HDAC8 of 1000 to 10000 nM.
Take `O=C(NO)c1ccc(CN2C[C@H]3CC[C@@H]2CO3)c(F)c1` [Compound 173]: the 50% inhibitory concentration (IC50) against Full length Human HDAC6 lay in the range of 1 to 100 nM; on Full length Human HDAC8 it was 1000 to 10000 nM.
As for `CN1[C@@H]2CC[C@H]1CC(CN1CCc3cc(C(=O)NO)cc(F)c3C1)C2` (single isomer, unassigned) [Compound 482], at Full length Human HDAC6, the half-maximal inhibitory concentration (IC50) was 1 to 100 nM and the “Selectivity (6 v 8)” value is “IV (IV: >100-1000)”. Further, on Full length Human HDAC8, the IC50 lay within 1000 to 10000 nM.
With `CC[C@@H]1Cc2c(F)cc(C(=O)NO)cc2CN1C1CC(C)(C)C1` (single isomer, unassigned) [Compound 592], the results for the concentration for half-maximal inhibition (IC50) against Full length Human HDAC6 and at Full length Human HDAC8 were 100 to 1000 nM and 10000 to 100000 nM, respectively. The “Selectivity (6 v 8)” value at Full length Human HDAC6 is on record as “IV (IV: >100-1000)”.
With `CC[C@H]1Cc2c(F)cc(C(=O)NO)cc2CN1CC1COC1` (single isomer, unassigned) [Compound 216], on Full length Human HDAC6, the half-maximal inhibitory concentration (IC50) is 1 to 100 nM and the “Selectivity (6 v 8)” value is recorded as “V (V: >1000)”. The same compound yielded an IC50 on Full length Human HDAC8 of more than 100000 nM.
Consider `CN1CCC[C@]2(CC[C@H]2N2CCc3cc(C(=O)NO)cc(F)c3C2)C1` (single isomer, unassigned) [Compound 363], for which, at Full length Human HDAC6, the IC50 was 1 to 100 nM and the “Selectivity (6 v 8)” value is recorded as “IV (IV: >100-1000)”. Besides, on Full length Human HDAC8, the IC50 is 10000 to 100000 nM.
In the case of `C[C@H]1CC[C@H]2c3c(F)cc(C(=O)NO)cc3CCN12` (single isomer, unassigned) [Compound 157], the IC50 on Full length Human HDAC6 lay within 1 to 100 nM; at Full length Human HDAC8 it was 1000 to 10000 nM.
With `O=C(NO)c1cc(F)c2c(c1)CCN([C@H]1CCCC3(CCC3)C1)C2` (single isomer, unassigned) [Compound 195], on Full length Human HDAC6, the 50% inhibitory concentration (IC50) was in the range of 1 to 100 nM and the “Selectivity (6 v 8)” value was “IV (IV: >100-1000)”. This compound returned a half-inhibitory concentration (IC50) at Full length Human HDAC8 of 10000 to 100000 nM.
For `O=C(NO)c1cc(F)c2c(c1)CCN([C@H]1C[C@@]3(CCCN(C4CC4)C3)C1)C2` (single isomer, unassigned) [Compound 346, 2-((2s,4r)-6-cyclopropyl-6-azaspiro[3.5]nonan-2-yl)-8-fluoro-N-hydroxy-1,2,3,4-tetrahydroisoquinoline-6-carboxamide], on Full length Human HDAC6, the 50% inhibitory concentration (IC50) fell in the range of 1 to 100 nM and the “Selectivity (6 v 8)” value is given as “IV (IV: >100-1000)”. The IC50 against Full length Human HDAC8 lay within 1000 to 10000 nM.
In the case of `CC[C@H]1Cc2c(F)cc(C(=O)NO)cc2CN1C1CC2(CCCCC2)C1` (single isomer, unassigned) [Compound 233], the concentration for half-maximal inhibition (IC50) on Full length Human HDAC6 lay within 1 to 100 nM; against Full length Human HDAC8 it was 10000 to 100000 nM. Also, the “Selectivity (6 v 8)” value on Full length Human HDAC6 is listed as “IV (IV: >100-1000)”.
For the compound `CN1CC[C@@]2(CC[C@@H](N3CCc4cc(C(=O)NO)cc(F)c4C3)C2)C1` (single isomer, unassigned) [Compound 404], on Full length Human HDAC6, the IC50 was 1 to 100 nM and the “Selectivity (6 v 8)” value is given as “IV (IV: >100-1000)”. The compound further showed an IC50 against Full length Human HDAC8 of 10000 to 100000 nM.
In the same order, the values of `O=C(NO)c1cc(F)c2c(c1)CCN(C1CC3(CCCCN3C3CC3)C1)C2` (stereo not drawn) [Compound 353, 2-(5-cyclopropyl-5-azaspiro[3.5]nonan-2-yl)-8-fluoro-3,4-dihydro-1H-isoquinoline-6-carbohydroxamic acid] are 1 to 100 nM, “IV (IV: >100-1000)” and 10000 to 100000 nM.
On to `O=C(NO)c1cc(F)c2c(c1)CCN(C1CC3(CCOCC3)C1)C2` [Compound 179, 8-Fluoro-N-hydroxy-2-(7-oxaspiro[3.5]nonan-2-yl)-1,2,3,4-tetrahydroisoquinoline-6-carboxamide], for which the IC50 against Full length Human HDAC6 was 1 to 100 nM; against Full length Human HDAC8, more than 100000 nM. Also, the “Selectivity (6 v 8)” value at Full length Human HDAC6 was “V (V: >1000)”.
As to `CC(=O)N1CCC2(CC1)CC(CN1CCc3cc(C(=O)NO)cc(F)c3C1)C2` [Compound 471, 2-[(7-acetyl-7-azaspiro[3.5]nonan-2-yl)methyl]-8-fluoro-3,4-dihydro-1H-isoquinoline-6-carbohydroxamic acid], at Full length Human HDAC6, the half-inhibitory concentration (IC50) lay in the range of 1 to 100 nM and the “Selectivity (6 v 8)” value is reported as “IV (IV: >100-1000)”. This compound also registered an IC50 against Full length Human HDAC8 of 10000 to 100000 nM.
For the compound `CC[C@@H]1Cc2c(F)cc(C(=O)NO)cc2CN1C1CC2(CCN(C)CC2)C1` (single isomer, unassigned) [Compound 594], at Full length Human HDAC6, the IC50 was 1 to 100 nM and the “Selectivity (6 v 8)” value is reported as “V (V: >1000)”. The 50% inhibitory concentration (IC50) against Full length Human HDAC8 was more than 100000 nM.
As to `C[C@@H]1CC[C@H]2c3c(F)cc(C(=O)NO)cc3CCN12` (single isomer, unassigned) [Compound 158], the IC50 was 1 to 100 nM on Full length Human HDAC6 and 1000 to 10000 nM at Full length Human HDAC8.
On to `CC[C@H]1Cc2c(F)cc(C(=O)NO)cc2CN1C1COC1` (single isomer, unassigned) [Compound 601], for which, on Full length Human HDAC6, the IC50 was 1 to 100 nM and the “Selectivity (6 v 8)” value was “IV (IV: >100-1000)”. This compound also registered a concentration for half-maximal inhibition (IC50) against Full length Human HDAC8 of 10000 to 100000 nM.
In the same order, the values of `CC(C)N1CC2(CCCCC2)CC[C@H]1Cc1cc(F)cc(C(=O)NO)c1` (single isomer, unassigned) [Compound 274] are 10000 to 100000 nM, “I (I: 0.1-1)” and 1000 to 10000 nM.
For the compound `CC[C@@H]1Cc2c(F)cc(C(=O)NO)cc2CN1C1CCCC1` (single isomer, unassigned) [Compound 580], on Full length Human HDAC6, the half-inhibitory concentration (IC50) lay within 100 to 1000 nM and the “Selectivity (6 v 8)” value is given as “III (III: >10-100)”. The IC50 against Full length Human HDAC8 was in the range of 10000 to 100000 nM.
On to `CC[C@H]1Cc2c(F)cc(C(=O)NO)cc2CN1C1CCCC1` (single isomer, unassigned) [Compound 581], for which, at Full length Human HDAC6, the half-maximal inhibitory concentration (IC50) lay within 100 to 1000 nM and the “Selectivity (6 v 8)” value is “III (III: >10-100)”. Besides, the 50% inhibitory concentration (IC50) on Full length Human HDAC8 is 10000 to 100000 nM.
Take `CN1CC2(C[C@H](N3CCc4cc(C(=O)NO)cc(F)c4C3)CCO2)C1` (single isomer, unassigned) [Compound 452]: on Full length Human HDAC6, the half-inhibitory concentration (IC50) was in the range of 100 to 1000 nM and the “Selectivity (6 v 8)” value was “III (III: >10-100)”. Besides, on Full length Human HDAC8, the IC50 fell in the range of 10000 to 100000 nM.
In the same order, the values of `O=C(NO)c1cc(F)c2c(c1)CCN([C@H]1CCN(Cc3ccccc3)C3(CCC3)C1)C2` (single isomer, unassigned) [Compound 443] are 1 to 100 nM, “IV (IV: >100-1000)” and 10000 to 100000 nM.
